According to paper PMC5519068 (PLoS ONE, 2017):
pIC50: −log10 of the molar value. Entries after “also recorded” stand apart in the source; their conditions may differ. Values belong to the compound of their own block, whether it stands above or below them.

What was measured:
Stat5 activation = test system: Stat5 activation; parameters: method as in PMID 22411868; conditions: MV4-11 cells and AML patient samples; cited from earlier work
[1] = test system: Flt3-ITD+ AML cell lines (MV4-11, MOLM-13, MOLM-14); assay: Apoptosis, Apo-ONE Caspase 3/7 assay; type: cell-based, human; conditions: 1.0 μM, 72 h
Procedure: (§1) Cells were seeded at a density of 100,000 cells per 1.0 ml in 48-well culture plates. Compounds were added to various concentrations while holding the DMSO concentration constant at 0.1%. Cell viability was assessed 72 hours later using the CellTiter-Blue Cell Viability assay (Promega) according to the manufacturer’s protocol and a SpectraMax Multi-Mode Microplate Reader (Molecular Devices). IC50 values were determined by non-linear regression analysis of concentration-response curves using the GraphPad PRISM software package (version 6.0). Apoptosis was determined using the same cell culture conditions and the Apo-ONE Homogeneous Caspase-3/7 Assay (Promega) and the manufacturer’s protocol.
Cell viability was measured in parallel using the CellTiter-Blue assay, and the resulting data are presented as the ratio of Caspase activity to cell viability as per the manufacturer’s protocol. All assays were performed in triplicate, and data are presented as the mean ratios ± SD. Asterisks indicate statistical significance between each treatment group vs. the corresponding DMSO control group with p < 0.05 (Student’s t-test).

THP-1 cells [2] = assay: Apoptosis, Apo-ONE Caspase 3/7 assay; type: cell-based, human; conditions: 1.0 μM, 72 h
Procedure: as §1
Fig 3 Fes tyrosine kinase inhibitors induce apoptosis in Flt3-ITD^+ AML cell lines. The Flt3-ITD^+ cell lines MV4-11, MOLM-13, and MOLM-14, along with THP-1 (wild-type FLT3), were incubated with each of kinase inhibitors shown at a final concentration of 1 μM and apoptosis was measured 72 h later using the Apo-ONE Caspase 3/7 Assay (Promega). Cell viability was measured in parallel using the CellTiter-Blue assay, and the resulting data are presented as the ratio of Caspase activity to cell viability as per the manufacturer’s protocol. All assays were performed in triplicate, and data are presented as the mean ratios ± SD. […]

[3] = test system: Flt3 and Fes in primary AML patient samples; parameters: method as in PMID 20111072; conditions: cited from earlier work
MOLM-13 cells = assay: Growth inhibition, CellTiter-Blue viability, 72 h; type: cell-based; conditions: Homo sapiens, MOLM-13 (Flt3-ITD+), read-out: Growth Suppression in AML Cell Lines (IC50, nM) MOLM-13
Procedure: as §1
(§2) Fig 2 Fes tyrosine kinase inhibitors induce growth arrest in Flt3-ITD^+ AML cell lines. A) The Flt3-ITD^+ cell lines MV4-11, MOLM-13, and MOLM-14, along with THP-1 (wild-type FLT3) were incubated with each of the kinase inhibitors shown over a range of concentrations, and cell viability was measured 72 h later using the CellTiter-Blue Assay (see Materials and methods). Raw fluorescence data were corrected for background and then normalized to cultures grown in the presence of the DMSO carrier solvent. Each assay condition was performed in triplicate, and results are presented as the mean of the normalized values ± the SD. The resulting dose-response curves were fitted by non-linear regression analysis, and the resulting IC50 values are shown in Table 1.

MOLM-14 cells = assay: Growth inhibition, CellTiter-Blue viability, 72 h; type: cell-based; conditions: Homo sapiens, MOLM-14 (Flt3-ITD+), read-out: Growth Suppression in AML Cell Lines (IC50, nM) MOLM-14
Procedure: as §1, §2

MV4-11 cells = assay: Growth inhibition, CellTiter-Blue viability, 72 h; type: cell-based; conditions: Homo sapiens, MV4-11 (Flt3-ITD+), read-out: Growth Suppression in AML Cell Lines (IC50, nM) MV4-11
Procedure: as §1, §2

THP-1 cells [4] = assay: Growth inhibition, CellTiter-Blue viability, 72 h; type: cell-based; conditions: Homo sapiens, THP-1 (wild-type Flt3), read-out: Growth Suppression in AML Cell Lines (IC50, nM) THP-1
Procedure: as §1, §2

[5] = test system: TF-1 cells transduced with an empty retroviral vector (Control); assay: Inhibitor sensitivity of TF-1 cell populations, CellTiter-Blue, 72 h; type: cell-based, human
Procedure: as §1
(§3) For each retroviral transduction, TF-1 cells (1 x 10^6) were suspended in 5 mL of undiluted viral supernatant and plated in one well of a 6-well tissue culture dish. Polybrene (Sigma) was added to a final concentration of 4 μg/mL and the TF-1 cells were centrifuged at 1000 x g for 3 hours to enhance retroviral mediated gene transfer. After centrifugation, the virus was removed and replaced with fresh medium.
(§4) Raw fluorescence data were corrected for background and then normalized to cultures grown in the presence of the DMSO carrier solvent. Each condition was performed in triplicate, and results are presented as the mean of the normalized values ± the SD. The resulting dose-response curves were fitted by non-linear regression analysis for estimation of the IC50 values (see Table 2). […] Fes and Flt3 kinase proteins were then immunoprecipitated from cell lysates followed by immunoblotting with antibodies to phosphotyrosine (pTyr), the Fes activation loop phosphotyrosine (pY713), as well as the Flt3 and Fes proteins.

TF-1/Flt3-D835Y cells = assay: as above; type: cell-based, human; conditions: Homo sapiens, TF-1, 72 h, read-out: Inhibitor sensitivity of TF-1 Cell Populations (IC50, nM) Flt3-D835Y
Procedure: as §1, §3, §4

TF-1/Flt3-ITD cells = assay: as above; type: cell-based, human; conditions: Homo sapiens, TF-1, 72 h, read-out: Inhibitor sensitivity of TF-1 Cell Populations (IC50, nM) Flt3-ITD
Procedure: as §1, §3, §4

[6] = test system: TF-1 cells expressing Flt3-WT; assay: as above; type: cell-based; conditions: Homo sapiens, TF-1, 72 h, read-out: Inhibitor sensitivity of TF-1 Cell Populations (IC50, nM) Flt3-WT
Procedure: as §1, §3, §4

[7] = test system: Flt3-ITD+ AML cell lines (MV4-11, MOLM-13, MOLM-14); assay: Growth inhibition across Flt3-ITD+ AML cell lines; type: cell-based; conditions: Homo sapiens, 72 h, read-out: IC50 values for growth inhibition, range over the Flt3-ITD+ AML cell lines
Procedure: as §1
Raw fluorescence data were corrected for background and then normalized to cultures grown in the presence of the DMSO carrier solvent. Each assay condition was performed in triplicate, and results are presented as the mean of the normalized values ± the SD.

[8] = test system: Flt3-ITD in MV4-11 and MOLM-14 cells; assay: Immunoprecipitation/immunoblot of Flt3 phosphotyrosine content in AML cells; type: cell-based, human; conditions: compound at in vitro IC90 for Fes, 16 h (tandutinib: IC90 for Flt3-ITD, 6 h)
Procedure: (§5) AML cells (2.5 x 10^6 in 5 mL) were cultured in the presence of kinase inhibitors or DMSO alone for 6 to 16 hours prior to lysis by sonication in RIPA buffer (50 mM Tris-HCl, pH 7.4, 150 mM NaCl, 1 mM EDTA, 1% Triton X-100, 0.1% SDS, 1% sodium deoxycholate) supplemented with 1 mM sodium orthovanadate, 1 mM sodium fluoride, 5 units/ml Benzonase (Novagen), and SigmaFAST EDTA-free protease inhibitor cocktail (Sigma). Flt3 and Fes were immunoprecipitated from 1 mg of cell lysate with 2 μg of antibody and 25 μL of protein G-Sepharose beads (Life Technologies) overnight at 4°C. Immunoprecipitates were washed three times by resuspension in 1.0 ml of RIPA buffer. Immunoprecipitated proteins were separated by SDS-PAGE, transferred to PVDF membranes and probed with the indicated antibodies followed by alkaline phosphatase-linked secondary antibodies. CDP-Star Western Blot Chemiluminescence Reagent (Perkin-Elmer) was used for detection.
(§6) Fes and Flt3 kinase proteins were then immunoprecipitated from cell lysates, followed by immunoblotting with antibodies to phosphotyrosine (pTyr), the Fes activation loop phosphotyrosine (pY713), as well as the Flt3 and Fes proteins.

[9] = test system: T1, Fes in MV4-11 and MOLM-14 cells; assay: Immunoprecipitation/immunoblot of Fes activation loop phosphorylation (pY713) in AML cells; type: cell-based, human; conditions: compound at in vitro IC90 for Fes, 16 h (tandutinib: IC90 for Flt3-ITD, 6 h)
T1 construct: endogenous in cells; host or cells: MV4-11 and MOLM-14
Procedure: as §5, §6

[10] = test system: Flt3-ITD in TF-1/Flt3-ITD cells; assay: Immunoprecipitation/immunoblot of Flt3 phosphotyrosine content in TF-1/Flt3-ITD cells; type: cell-based, human; conditions: compound at in vitro IC90 for Fes, 16 h (tandutinib: IC90 for Flt3-ITD, 6 h)
Procedure: as §5, §4

[11] = test system: Fes in TF-1/Flt3-ITD cells; assay: Immunoprecipitation/immunoblot of Fes pY713 in TF-1/Flt3-ITD cells; type: cell-based, human; conditions: compound at in vitro IC90 for Fes, 16 h (tandutinib: IC90 for Flt3-ITD, 6 h)
Procedure: as §5, §4

[12] = test system: Flt3-D835Y in TF-1/Flt3-D835Y cells; assay: Immunoprecipitation/immunoblot of Flt3-D835Y phosphotyrosine content in TF-1/Flt3-D835Y cells; type: cell-based, human; conditions: immunoblot, compound at in vitro IC90
Procedure: as §5, §4

Flt3-ITD in Ba/F3 cells = conditions: 100 nM; cited from earlier work
[13] = test system: Flt3-ITD-transformed Ba/F3 cells; conditions: cited from earlier work
[14] = biological target: T2, recombinant full-length Fes (Homo sapiens, UniProt P07332); assay: In vitro kinase assay (Z'-LYTE); type: biochemical; conditions: highest concentration tested 100 μM
T2 construct: in vitro kinase assays using recombinant purified full-length Fes; made in house; host or cells: E. coli
Procedure: Recombinant protein kinase assays were performed using the FRET-based Z’-LYTE Kinase Assay according to the manufacturer’s instructions (Thermo Fisher Scientific). […] The Tyr-2 peptide was used as substrate for all recombinant kinases. Kinases were preincubated with inhibitors for 30 minutes, followed by addition of ATP and peptide substrate for 1 hour. Reactions were quenched by addition of development reagent, followed by incubation for an additional hour prior to fluorescence measurements on a SpectraMax M5 microplate reader. IC50 values were calculated by non-linear regression analysis of the resulting concentration-response curves using GraphPad PRISM.

T2 sequence (P07332 whole entry): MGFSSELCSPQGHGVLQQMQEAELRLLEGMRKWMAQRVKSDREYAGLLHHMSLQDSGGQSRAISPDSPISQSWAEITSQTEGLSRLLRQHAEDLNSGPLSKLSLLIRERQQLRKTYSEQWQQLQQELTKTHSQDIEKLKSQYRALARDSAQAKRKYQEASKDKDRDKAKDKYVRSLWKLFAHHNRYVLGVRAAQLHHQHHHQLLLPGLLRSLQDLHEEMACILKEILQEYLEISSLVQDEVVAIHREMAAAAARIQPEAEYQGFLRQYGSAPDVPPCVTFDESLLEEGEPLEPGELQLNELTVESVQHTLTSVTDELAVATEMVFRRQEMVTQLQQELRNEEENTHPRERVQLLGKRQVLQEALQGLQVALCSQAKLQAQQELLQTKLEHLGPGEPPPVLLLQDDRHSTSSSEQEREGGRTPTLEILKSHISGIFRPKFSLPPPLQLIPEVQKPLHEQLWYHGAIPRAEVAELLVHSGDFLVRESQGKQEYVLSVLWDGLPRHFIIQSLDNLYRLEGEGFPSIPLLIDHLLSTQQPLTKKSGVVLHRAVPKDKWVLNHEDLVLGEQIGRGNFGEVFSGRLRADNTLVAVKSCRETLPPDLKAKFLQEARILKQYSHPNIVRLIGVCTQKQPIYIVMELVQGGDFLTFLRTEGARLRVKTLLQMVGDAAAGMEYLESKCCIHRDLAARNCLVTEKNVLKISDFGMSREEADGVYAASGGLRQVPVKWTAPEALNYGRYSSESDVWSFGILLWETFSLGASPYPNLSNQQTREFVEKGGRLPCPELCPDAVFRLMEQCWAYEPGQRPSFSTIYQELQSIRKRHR

Structure (SMILES): Cc1nc(Nc2ncc(C(=O)Nc3c(C)cccc3Cl)s2)cc(N2CCN(CCO)CC2)n1 [dasatinib]
Effect on Stat5 activation (Stat5 activation): reduced Stat5 activation

Structure (SMILES): CN[C@@H]1C[C@H]2O[C@@](C)([C@@H]1OC)n1c3ccccc3c3c4c(c5c6ccccc6n2c5c31)C(=O)NC4 [staurosporine, reference compound]
Apoptosis (Caspase 3/7 activity) in Flt3-ITD+ AML cell lines [1]: strong apoptotic response
Apoptosis (Caspase 3/7 activity) in THP-1 cells (THP-1 cells [2]): strong apoptotic response

Structure (SMILES): Cc1cc(C)c(/C=C2\C(=O)Nc3ccccc32)[nH]1 [SU5416]
Effect on Flt3 and Fes activation in primary AML patient samples [3]: reduced both Flt3 and Fes activation

Structure (SMILES): COc1cc(N2CCC(N3CCN(C)CC3)CC2)ccc1Nc1ncc(Cl)c(Nc2ccccc2S(=O)(=O)C(C)C)n1 [TAE-684, reference compound]
IC50 (MOLM-13 cells): 166 nM
IC50 (MOLM-14 cells): 74 nM
IC50 (MV4-11 cells): 123 nM
IC50 (THP-1 cells [4]): > 3000 nM
IC50 ([5]; Homo sapiens, TF-1, empty vector control, 72 h): > 1000 nM
Nonspecific cytotoxicity in TF-1 cells expressing wild-type Flt3 or vector control cells ([5]; TF-1/Flt3-WT and vector control cells): some nonspecific cytotoxicity in the low micromolar range
IC50 (TF-1/Flt3-D835Y cells): 83 nM
IC50 (TF-1/Flt3-ITD cells): 82 nM
IC50 [6]: > 1000 nM
pIC50 [7]: 6.78 to 7.72
Apoptosis (Caspase 3/7 activity) in Flt3-ITD+ AML cell lines [1]: equal to or greater than that observed with tandutinib
Inhibition of Flt3-ITD phosphotyrosine content in MV4-11 and MOLM-14 cells [8]: no effect
Inhibition of Fes activation loop phosphorylation in MV4-11 and MOLM-14 cells [9]: did inhibit Fes
Inhibition of Flt3-ITD phosphotyrosine content in TF-1/Flt3-ITD cells [10]: no effect on Flt3-ITD; also recorded: did not affect Flt3-ITD phosphotyrosine content
Inhibition of Fes activation loop phosphorylation in TF-1/Flt3-ITD cells [11]: inhibited Fes
Inhibition of Flt3-D835Y phosphotyrosine content in TF-1/Flt3-D835Y cells [12]: complete inhibition; also recorded: completely suppressed
Effect on Flt3-ITD phosphotyrosine content in Ba/F3 cells expressing Flt3-ITD (Flt3-ITD in Ba/F3 cells): no effect
Effect on Flt3-ITD-transformed Ba/F3 cell proliferation [13]: no effect

IC50 (MOLM-13 cells): 532 nM
IC50 (MOLM-14 cells): 232 nM
IC50 (MV4-11 cells): 502 nM
IC50 (THP-1 cells [4]): > 3000 nM
Effect on Fes kinase activity in vitro (words) ([14]; listed as tandutinib): no effect
Structure (SMILES): COc1cc2c(N3CCN(C(=O)Nc4ccc(OC(C)C)cc4)CC3)ncnc2cc1OCCCN1CCCCC1 [Tandutinib, reference compound]
Effect on Fes kinase activity in vitro (words) [14]: does not inhibit Fes in vitro or in cells
Inhibition of Fes activation loop phosphorylation in MV4-11 and MOLM-14 cells [9]: little effect
